Measured values as given in US10807982B2, “Bromodomain inhibitors” (CELGENE QUANTICEL RESEARCH, INC., priority 2015, dated 2020).

Tests used:
[1] = test system: NCI-H460, human non-small cell lung cancer cells; assay: Cell-MTS cellular proliferation assay, NCI-H460; type: cell-based; settings: Homo sapiens, 168 hr incubation
Experimental: (§1) A colorimetric cellular proliferation assay (Cell-MTS assay) was performed to assess the ability of the heterocyclic derivative […] inhibitors disclosed herein to effect the proliferation of established cancer cell lines.
(§2) The Cell-MTS assay is a 7-day plate-based colorimetric assay which quantifies the amount of newly generated NADH in the presence or absence of test compound. The NADH level is used for the quantification of cancer cell proliferation.
(§3) Established cancer cell lines with a variety of driving mutations were obtained from American Type Culture Collection (ATCC) and routinely passaged according to ATCC protocols. For routine assay, these cells were seeded at densities which enabled ˜90% confluence after 7 days of culture. Raji, human Burkitts lymphoma cells, (cMYC) were seeded at 15,000 cells per 96-well. HL-60, human proleukemia cells, (NRAS, p16, p53, c-Myc amplified) were seeded at 5,000 cells per 96-well. NCI-H460, human non-small cell lung cancer cells. (KRAS, PIK3CA, STLK11, p16) were seeded at 3,000 cells per 96-well. 24 hr after plating, cells received an 11 point dilution of test compound with final concentration ranges from 100 µM to 2.0 nM. Cells were incubated in the presence of compound for 168 hr at 37° C., and 5% CO2. At the end of this incubation period, 80 µL of media is removed and 20 µL of CellTiter 96® AQueous Non-Radioactive Cell Proliferation Assay solution (Promega) was added. The cells were incubated until the OD490 was >0.6. IC50 values were calculated using the IDBS XLfit software package and include background subtracted OD490 values and normalization to DMSO controls. Cellular proliferation IC50 values were uploaded and archived using the Chem Biography Platform. Table 3 provides the results of the in vitro enzyme inhibition assay experiments and the in vitro cell-based assay experiments performed with the compounds disclosed herein: […]

[2] = test system: Raji, human Burkitts lymphoma cells; assay: Cell-MTS cellular proliferation assay, Raji; type: cell-based; settings: Homo sapiens, 168 hr incubation
Experimental: as §1, §2, §3

[3] = test system: HL-60, human proleukemia cells; assay: Cell-MTS cellular proliferation assay, HL-60; type: cell-based; settings: Homo sapiens, HL-60 cells, 168 hr incubation
Experimental: as §1, §2, §3

BRD4(BD1) = BRD4(BD1) (Homo sapiens (Human), UniProt O60885); assay: In vitro enzyme inhibition assay (BRD4 AlphaScreen, H4-tetraacetyl peptide); type: binding; settings: BRD4(BD1) 2 nM, peptide 15 nM
Experimental: Determination of the IC50 for the heterocyclic derivative BRD4 inhibitors disclosed herein was performed as follows. His-tagged […] was cloned, expressed and purified to homogeneity. Filipakopoulos et al., 468 Nature 1067 (2010). BRD4 binding and inhibition was assessed by monitoring the interaction of biotinylated H4-tetraacetyl peptide (AnaSpec, H4K5/8/12/16(Ac), biotin—labeled) with the target using the AlphaScreen technology (Life Technologies). In a 384-well ProxiPlate BRD4(BD1) (2 nM final) was combined with peptide (15 nM final) in 50 mM HEPES (pH 7.3), 10 mM NaCl, 0.25 mM TCEP, 0.1% (w/v) BSA, and 0.005% (w/v) Brij-35 either in the presence of DMSO (final 0.4% DMSO) or compound dilution series in DMSO. After 20 min incubation at RT, Alpha streptavidin donor beads and Nickel Chelate acceptor beads were added to a final concentration of 5 μg/mL. After 2 hr of equilibration, plates were read on an Envision instrument and the IC50 was calculated using a four parameter non-linear curve fit.
The ability of the compounds disclosed herein to inhibit BRD4 activity was quantified and the respective IC50 value was determined.

IC50 [1] | IC50 [2] | IC50 [3] | IC50 (BRD4(BD1)) | SMILES
> 5000 nM | 500 to 5000 nM | ≤ 500 nM | ≤ 500 nM | Cc1cc(-c2cc3c(cc2OCC2CC2)CN(C)S3(=O)=O)cn(C)c1=O [Example 5, 5-[5-(cyclopropylmethoxy)-2-methyl-1,1-dioxo-3H-1,2-benzothiazol-6-yl]-1,3-dimethylpyridin-2-one]
500 to 5000 nM | 500 to 5000 nM | ≤ 500 nM | ≤ 500 nM | CCN1Cc2cc(OCC3CC3)c(-c3cc(C)c(=O)n(C)c3)cc2S1(=O)=O [Example 8, 5-[5-(cyclopropylmethoxy)-2-ethyl-1,1-dioxo-3H-1,2-benzothiazol-6-yl]-1,3-dimethylpyridin-2-one]
> 5000 nM | 500 to 5000 nM | ≤ 500 nM | ≤ 500 nM | Cc1cc(-c2cc3c(cc2OCC(F)(F)F)CN(C)S3(=O)=O)cn(C)c1=O [Example 9, 1,3-dimethyl-5-[2-methyl-1,1-dioxo-5-(2,2,2-trifluoroethoxy)-3H-1,2-benzothiazol-6-yl]pyridine-2-one]
500 to 5000 nM | ≤ 500 nM | ≤ 500 nM | ≤ 500 nM | CCS(=O)(=O)N1CCc2cc(OCC3CC3)c(-c3cn(C)c(=O)c4ccccc34)cc21 [Example 14, 4-[5-(cyclopropylmethoxy)-1-ethylsulfonyl-2,3-dihydroindol-6-yl]-2-methylisoquinolin-1-one]
500 to 5000 nM | ≤ 500 nM | ≤ 500 nM | ≤ 500 nM | Cn1cc(-c2cc(NS(C)(=O)=O)c3ccn(Cc4ccccc4)c3c2)c2ccccc2c1=O [Example 17, N-[1-benzyl-6-(2-methyl-1-oxoisoquinolin-4-yl)indol-4-yl]methanesulfonamide]
500 to 5000 nM | ≤ 500 nM | ≤ 500 nM | ≤ 500 nM | Cn1cc(-c2cc(S(C)(=O)=O)cc3cc(-c4ccccc4)oc23)c2ccccc2c1=O [Example 26, 2-methyl-4-(5-methylsulfonyl-2-phenyl-1-benzofuran-7-yl)isoquinolin-1-one]
500 to 5000 nM | ≤ 500 nM | ≤ 500 nM | ≤ 500 nM | CCS(=O)(=O)Nc1cc(-c2cc(C)c(=O)n(C)c2)cc2c1nnn2Cc1ccccc1 [Example 27, N-[1-benzyl-6-(1,5-dimethyl-6-oxopyridin-3-yl)benzotriazol-4-yl]ethanesulfonamide]
500 to 5000 nM | ≤ 500 nM | ≤ 500 nM | ≤ 500 nM | Cn1cc(-c2cc3c(S(C)(=O)=O)nn(C)c3cc2OCC2CC2)c2ccccc2c1=O [Example 29, 4-[6-(cyclopropylmethoxy)-1-methyl-3-methylsulfonylindazol-5-yl]-2-methylisoquinolin-1-one]

Further lines, the molecule ahead of its results:

SMILES | IC50 [1] | IC50 [2] | IC50 [3] | IC50 (BRD4(BD1))
CN1Cc2cc(OCC3CC3)c(-c3cn(C)c(=O)c4ccccc34)cc2S1(=O)=O [Example 6, 4-[5-(cyclopropyhnethoxy)-2-methyl-1,1-dioxo-3H-1,2-benzothiazol-6-yl]-2-methylisoquinolin-1-one] | 500 to 5000 nM | 500 to 5000 nM | ≤ 500 nM | ≤ 500 nM
CCN1Cc2cc(OCC3CC3)c(-c3cn(C)c(=O)c4ccccc34)cc2S1(=O)=O [Example 7, 4-[5-(cyclopropylmethoxy)-2-ethyl-1,1-dioxo-3H-1,2-benzothiazol-6-yl]-2-methylisoquinolin-1-one] | 500 to 5000 nM | ≤ 500 nM | ≤ 500 nM | ≤ 500 nM
CN1Cc2cc(OCC(F)(F)F)c(-c3cn(C)c(=O)c4ccccc34)cc2S1(=O)=O [Example 10, 2-methyl-4-[2-methyl-1,1-dioxo-5-(2,2,2-trifluoroethoxy)-3H-1,2-benzothiazol-6-yl]isoquinolin-1-one] | 500 to 5000 nM | 500 to 5000 nM | ≤ 500 nM | ≤ 500 nM
Cc1cc(-c2cc3c(cc2Oc2ccc(F)cc2F)CN(C)S3(=O)=O)cn(C)c1=O [Example 11, 5-[5-(2,4-difluorophenoxy)-2-methyl-1,1-dioxo-3H-1,2-benzothiazol-6-yl]-1,3-dimethylpyridin-2-one] | > 5000 nM | ≤ 500 nM | ≤ 500 nM | ≤ 500 nM
Cn1cc(-c2cc3c(cc2OCC2CC2)CCN3S(C)(=O)=O)c2ccccc2c1=O [Example 13, 4-[5-(cyclopropylmethoxy)-1-methylsulfonyl-2,3-dihydroindol-6-yl]-2-methylisoquinolin-1-one] | 500 to 5000 nM | ≤ 500 nM | ≤ 500 nM | ≤ 500 nM
Cc1cc(-c2cc3c(cc2OCC2CC2)CCN3S(C)(=O)=O)cn(C)c1=O [Example 15, 5-[5-(cyclopropylmethoxy)-1-methylsulfonyl-2,3-dihydroindol-6-yl]-1,3-dimethylpyridin-2-one] | > 5000 nM | ≤ 500 nM | ≤ 500 nM | ≤ 500 nM
CCS(=O)(=O)N1CCc2cc(OCC3CC3)c(-c3cc(C)c(=O)n(C)c3)cc21 [Example 16, 5-[5-(cyclopropylmethoxy)-1-ethylsulfonyl-2,3-dihydroindol-6-yl]-1,3-dimethylpyridin-2-one] | > 5000 nM | ≤ 500 nM | ≤ 500 nM | ≤ 500 nM
Cc1cc(-c2cc(NS(C)(=O)=O)c3ccn(Cc4ccccc4)c3c2)cn(C)c1=O [Example 18, N-[1-benzyl-6-(1,5-dimethyl-6-oxopyridin-3-yl)indol-4-yl]methanesulfonamide] | 500 to 5000 nM | ≤ 500 nM | ≤ 500 nM | ≤ 500 nM
Cc1cc(-c2cc(NS(C)(=O)=O)c3c(c2)N(Cc2ccccc2)CC3)cn(C)c1=O [Example 19, N-[1-benzyl-6-(1,5-dimethyl-6-oxopyridin-3-yl)-2,3-dihydroindol-4-yl]methanesulfonamide] | 500 to 5000 nM | ≤ 500 nM | ≤ 500 nM | ≤ 500 nM
Cn1cc(-c2cc(NS(C)(=O)=O)c3c(c2)N(Cc2ccccc2)CC3)c2ccccc2c1=O [Example 20, N-[1-benzyl-6-(2-methyl-1-oxoisoquinolin-4-yl)-2,3-dihydroindol-4-yl]methanesulfonamide] | 500 to 5000 nM | ≤ 500 nM | ≤ 500 nM | ≤ 500 nM
Cc1cc(-c2cc(S(C)(=O)=O)cc3cc(C4CC4)oc23)cn(C)c1=O [Example 23, 5-(2-cyclopropyl-5-methylsulfonyl-1-benzofuran-7-yl)-1,3-dimethylpyridin-2-one] | > 5000 nM | 500 to 5000 nM | ≤ 500 nM | ≤ 500 nM
Cn1cc(-c2cc(S(C)(=O)=O)cc3cc(C4CC4)oc23)c2ccccc2c1=O [Example 24, 4-(2-cyclopropyl-5-methylsulfonyl-1-benzofuran-7-yl)-2-methylisoquinolin-1-one] | 500 to 5000 nM | ≤ 500 nM | ≤ 500 nM | ≤ 500 nM
CCS(=O)(=O)Nc1cc(-c2cc(C)c(=O)n(C)c2)cc2c1nnn2Cc1ccc(F)cc1 [Example 28, N-[6-(1,5-dimethyl-6-oxopyridin-3-yl)-1-[(4-fluorophenyl)methyl]benzotriazol-4-yl]ethanesulfonamide] | 500 to 5000 nM | ≤ 500 nM | ≤ 500 nM | ≤ 500 nM
CCS(=O)(=O)c1nn(C)c2cc(OCC3CC3)c(-c3cn(C)c(=O)c4ccccc34)cc12 [Example 30, 4-[6-(cyclopropylmethoxy)-3-ethylsulfonyl-1-methylindazol-5-yl]-2-methylisoquinolin-1-one] | 500 to 5000 nM | ≤ 500 nM | ≤ 500 nM | ≤ 500 nM
Cc1cc(-c2cc(NS(C)(=O)=O)c3ncn(Cc4ccccc4)c3c2)cn(C)c1=O [Example 31, N-[1-benzyl-6-(1,5-dimethyl-6-oxopyridin-3-yl)benzimidazol-4-yl]methanesulfonamide] | 500 to 5000 nM | ≤ 500 nM | ≤ 500 nM | ≤ 500 nM
